Experimental data from PubChem BioAssay (NCI).
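Protocol summary: plate cells (96-well), add compound at 5 concentrations, incubate 48 h, interpolate endpoints linearly. TGI is the concentration that stops growth completely.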

Assays:
Experiment in all cases: inhibition of tumour cell growth, NCI panel, 48 h
U251 CNS = test system: U251 CNS
SNB-75 CNS = test system: SNB-75 CNS
SR leukemia = test system: SR leukemia
TK-10 renal = test system: TK-10 renal
UO-31 renal = test system: UO-31 renal
HCT-15 colon = test system: HCT-15 colon
OVCAR-4 ovarian = test system: OVCAR-4 ovarian
UACC-62 melanoma = test system: UACC-62 melanoma
NCI-H226 lung = test system: NCI-H226 lung
UACC-257 melanoma = test system: UACC-257 melanoma
SN12C renal = test system: SN12C renal
RXF 393 renal = test system: RXF 393 renal
LOX IMVI melanoma = test system: LOX IMVI melanoma
HS 578T breast = test system: HS 578T breast
MCF7 breast = test system: MCF7 breast
NCI/ADR-RES ovarian = test system: NCI/ADR-RES ovarian
MDA-MB-435 = test system: MDA-MB-435

Structure (SMILES)	TGI (U251 CNS)	TGI (SNB-75 CNS)	TGI (SR leukemia)	TGI (TK-10 renal)	TGI (UO-31 renal)	TGI (HCT-15 colon)	TGI (OVCAR-4 ovarian)	TGI (UACC-62 melanoma)	TGI (NCI-H226 lung)	TGI (UACC-257 melanoma)	TGI (SN12C renal)	TGI (RXF 393 renal)	TGI (LOX IMVI melanoma)	TGI (HS 578T breast)	TGI (MCF7 breast)	TGI (NCI/ADR-RES ovarian)	TGI (MDA-MB-435)
CN(CCO)c1nc2c(c(=O)[nH]1)CCC2	> 100 µM	> 100 µM	> 100 µM	> 100 µM	> 100 µM	> 100 µM	> 100 µM	> 100 µM	> 100 µM	> 100 µM	> 100 µM	> 100 µM	> 100 µM				
CCOc1ccc2nc(NC(=O)c3c/c(=N\NC(=O)C[N+](C)(C)C)c4ccc(O)cc4o3)sc2c1	10.5 µM	3.53 µM	17.3 µM	36.5 µM	24.7 µM	20 µM	5.96 µM	3.21 µM	12 µM	3.16 µM	14.5 µM	14.4 µM	5.73 µM				
CC1(C)CS(=O)(=O)CC(C)(C)C(=N/N)/C1=N\N	> 100 µM	> 100 µM	> 100 µM	> 100 µM		> 100 µM	> 100 µM	> 100 µM		> 100 µM	> 100 µM		> 100 µM	> 100 µM	> 100 µM	> 100 µM	> 100 µM
CCOC1(COP(=O)(OCc2ccccc2)OCc2ccccc2)COC(COP(=O)(OCc2ccccc2)OCc2ccccc2)(OCC)CO1 (configuration not stated)	> 100 µM		> 100 µM	> 100 µM		> 100 µM	> 100 µM	> 100 µM	> 100 µM	> 100 µM	> 100 µM	> 100 µM	> 100 µM				
COc1ccc2[nH]c3c(c2c1)CCn1c-3nc2ccccc2c1=O	> 25 µM	> 25 µM	> 25 µM	> 25 µM	> 25 µM	> 25 µM	> 25 µM			> 25 µM	> 25 µM			> 25 µM	> 25 µM	> 25 µM	> 25 µM
O=C(c1ccccc1)c1ccc(COc2ccc(C(c3c(O)c4ccccc4oc3=O)c3c(O)c4ccccc4oc3=O)cc2)cc1	> 100 µM	32.7 µM	63.9 µM	32.8 µM	77.3 µM	> 100 µM	73 µM	30 µM	31 µM	38.7 µM	> 100 µM	44.5 µM	56.5 µM	> 100 µM	67.5 µM	40.9 µM	46.8 µM
CCOC(=O)c1sc2c(c1OC(=O)c1cccs1)c(=O)n(-c1ccccc1)c(=S)n2-c1ccccc1	31.4 µM	> 100 µM		> 100 µM	0.925 µM	43.4 µM	27.5 µM	33.4 µM	48.7 µM	> 100 µM	42 µM	89.8 µM	36.3 µM	83 µM	69.1 µM	31.4 µM	29.2 µM
CN(C)CCCNC(=O)N/N=C/c1cccc([N+](=O)[O-])c1	> 100 µM	> 100 µM		> 100 µM		> 100 µM	> 100 µM	> 100 µM	> 100 µM	> 100 µM	> 100 µM	> 100 µM	> 100 µM				
CCO[C@]12C[C@H](OC)[C@@]3(O)CC(C1[C@H]3OCc1ccccc1)C13C4C2[C@H](OC)C1[C@](COC)(CN4CC)[C@H](O)C[C@@H]3OC (some centres not stated)	> 100 µM	> 100 µM	> 100 µM	> 100 µM	> 100 µM	> 100 µM	> 100 µM	> 100 µM	> 100 µM	> 100 µM	> 100 µM	> 100 µM	> 100 µM				
Cn1c(/C=C(\O)c2ccc(Cl)cc2)nc2ccccc21	> 100 µM	> 100 µM	> 100 µM		66.1 µM	> 100 µM	> 100 µM	> 100 µM	> 100 µM	67.1 µM	> 100 µM	> 100 µM	> 100 µM				
CCOC(=O)C1=C(O)C(=O)c2ccsc2C1=O	> 100 µM	> 100 µM	> 100 µM	> 100 µM	> 100 µM	> 100 µM	> 100 µM	> 100 µM	> 100 µM	> 100 µM	> 100 µM	> 100 µM	> 100 µM				
CC12NN=NC1C(=O)NC2=O (configuration not stated)	> 100 µM	> 100 µM	> 100 µM	> 100 µM	> 100 µM	> 100 µM	> 100 µM	> 100 µM	> 100 µM	> 100 µM	> 100 µM		> 100 µM				
CC(=O)C1=CSC2[C@H](NC(=O)Cc3ccccc3)C(=O)N2C1C(=O)OC(c1ccccc1)c1ccccc1 (some centres not stated)		> 100 µM	> 100 µM	> 100 µM	> 100 µM		> 100 µM	> 100 µM	> 100 µM	> 100 µM	> 100 µM						
Cc1cc2c(C)n(Cc3ccc(Cl)cc3Cl)nc2c(C#N)c1C	> 61.9 µM	62 µM	> 100 µM	68.4 µM	> 95.3 µM	> 100 µM	> 100 µM	> 100 µM	> 56.2 µM	> 100 µM	> 100 µM	57.3 µM	> 100 µM				
CSCC1CC(c2ccc(Cl)cc2)=NO1 (configuration not stated)	> 100 µM	> 100 µM	> 100 µM	> 100 µM	> 100 µM	> 100 µM	> 100 µM	> 100 µM	> 100 µM	> 100 µM	> 100 µM						
CC1=NN(c2ccccc2)C(=O)/C1=C/c1ccc(O)cc1	> 100 µM		> 100 µM	> 100 µM		> 100 µM	> 100 µM	> 100 µM	> 100 µM	> 100 µM	> 100 µM	> 100 µM	> 100 µM	> 100 µM	> 100 µM	> 100 µM	> 100 µM
CCOC(=O)C1=C(NC)OC/C1=N\NC(=O)c1ccccc1O	> 100 µM	> 100 µM		> 100 µM	26.1 µM		83.5 µM	80.5 µM	60.6 µM	17.3 µM	> 100 µM	> 100 µM	70.4 µM				
